The target in this test is Human immunodeficiency virus type 1 protease (Human immunodeficiency virus 1, UniProt Q72874). In words: Inhibition of HIV-1 protease.
What is called Ki is a measure of affinity in units of concentration, obtained from inhibition or displacement. A low value points to tighter binding. In turn, `O=C(NCC1CC1)c1cccc(CN2C(=O)N(Cc3cccc(C(=O)NCC4CC4)c3)[C@H](Cc3ccccc3)[C@H](O)[C@@H](O)[C@H]2Cc2ccccc2)c1` returned a Ki of 0.741 nM.
For `COc1cc(OC)cc(N2C(=O)N(Cc3cccc(C(=O)Nc4cnccn4)c3)[C@H](Cc3ccccc3)[C@H](O)[C@@H](O)[C@H]2Cc2ccccc2)c1` the value was 2.51 nM; for `COc1cc(OC)cc(N2C(=O)N(Cc3cccc(C(=O)Nc4cccc(C)n4)c3)[C@H](Cc3ccccc3)[C@H](O)[C@@H](O)[C@H]2Cc2ccccc2)c1`, 0.7 nM.
In the case of `CC(C)(C)NC(=O)c1cccc(CN2C(=O)N(c3cccc(N)c3)[C@H](Cc3ccccc3)[C@H](O)[C@@H](O)[C@H]2Cc2ccccc2)c1` it was 0.41 nM.
The compound `O=C(NCc1ccccc1)c1cccc(CN2C(=O)N(Cc3cccc(C(=O)NCc4ccccc4)c3)[C@H](Cc3ccccc3)[C@H](O)[C@@H](O)[C@H]2Cc2ccccc2)c1` registered an inhibition constant Ki of 0.43 nM.
On to `COc1cc(OC)cc(N2C(=O)N(Cc3cccc(C(=O)Nc4ccccn4)c3)[C@H](Cc3ccccc3)[C@H](O)[C@@H](O)[C@H]2Cc2ccccc2)c1`, for which the affinity corresponds to a Ki of 0.86 nM.
In turn, `Nc1cccc(N2C(=O)N(Cc3cccc(C(=O)Nc4ncc[nH]4)c3)[C@H](Cc3ccccc3)[C@H](O)[C@@H](O)[C@H]2Cc2ccccc2)c1` came in with a Ki of 0.012 nM.
In the case of `COc1cccc(N2C(=O)N(Cc3cccc(C(=O)Nc4cccc(C)n4)c3)[C@H](Cc3ccccc3)[C@H](O)[C@@H](O)[C@H]2Cc2ccccc2)c1` it was 0.053 nM.
For `COc1cccc(N2C(=O)N(Cc3cccc(C(=O)Nc4cnccn4)c3)[C@H](Cc3ccccc3)[C@H](O)[C@@H](O)[C@H]2Cc2ccccc2)c1` the value was 0.038 nM; for `Cc1ccc(NC(=O)c2cccc(CN3C(=O)N(c4cccc(N)c4)[C@H](Cc4ccccc4)[C@H](O)[C@@H](O)[C@H]3Cc3ccccc3)c2)nc1`, 0.075 nM; for `O=C1N(Cc2ccc3ccccc3c2)[C@H](Cc2ccccc2)[C@H](O)[C@@H](O)[C@@H](Cc2ccccc2)N1C1CCCC1`, 0.28 nM.
On to `COc1cccc(N2C(=O)N(Cc3cccc(C(=O)Nc4ccc(C)cn4)c3)[C@H](Cc3ccccc3)[C@H](O)[C@@H](O)[C@H]2Cc2ccccc2)c1`, for which the inhibitory constant (Ki) stood at 0.069 nM.
For `Nc1cccc(N2C(=O)N(Cc3cccc(C(=O)Nc4nc5ccccc5[nH]4)c3)[C@H](Cc3ccccc3)[C@H](O)[C@@H](O)[C@H]2Cc2ccccc2)c1` the value was 0.023 nM; for `COc1cccc(N2C(=O)N(Cc3cccc(C(=O)Nc4ccccn4)c3)[C@H](Cc3ccccc3)[C@H](O)[C@@H](O)[C@H]2Cc2ccccc2)c1`, 0.047 nM.
In the case of `CC(C)(C)CCN1C(=O)N(CCC(C)(C)C)[C@H](Cc2ccccc2)[C@H](O)[C@@H](O)[C@H]1Cc1ccccc1` it was 36 nM; in that of `O=C(Nc1ccccn1)c1cccc(CN2C(=O)N(c3cccc([N+](=O)[O-])c3)[C@H](Cc3ccccc3)[C@H](O)[C@@H](O)[C@H]2Cc2ccccc2)c1`, 0.096 nM.
`N#CCNC(=O)c1cccc(CN2C(=O)N(C(=O)CNC(=O)c3ccccc3)[C@H](Cc3ccccc3)[C@H](O)[C@@H](O)[C@H]2Cc2ccccc2)c1` showed a Ki of 0.024 nM.
In turn, `COc1cc(OC)cc(N2C(=O)N(Cc3cccc(C(=O)Nc4ccc(C)cn4)c3)[C@H](Cc3ccccc3)[C@H](O)[C@@H](O)[C@H]2Cc2ccccc2)c1` registered a Ki of 1.9 nM.
`Nc1cccc(N2C(=O)N(Cc3cccc(C(=O)Nc4cnccn4)c3)[C@H](Cc3ccccc3)[C@H](O)[C@@H](O)[C@H]2Cc2ccccc2)c1` showed a Ki of 0.016 nM.

The values above are taken from ChEMBL document CHEMBL1132660, “Three-dimensional quantitative structure-activity relationship study on cyclic urea derivatives as HIV-1 protease inhibitors: application of comparative molecular field analysis” (J Med Chem, 1999).
